Results: patent US8765730B2 (Hoffmann-La Roche Inc, priority 2010, dated 2014)
Where a name gives a salt, the structure may show the parent alone. Read-outs that look alike come from different tables or passages of the source.

Molecular target: T1, human GPBAR1 receptor (Homo sapiens, UniProt Q8TDU6)
T1 construct: expressed in transfected cells
T1 sequence (Q8TDU6 1-330): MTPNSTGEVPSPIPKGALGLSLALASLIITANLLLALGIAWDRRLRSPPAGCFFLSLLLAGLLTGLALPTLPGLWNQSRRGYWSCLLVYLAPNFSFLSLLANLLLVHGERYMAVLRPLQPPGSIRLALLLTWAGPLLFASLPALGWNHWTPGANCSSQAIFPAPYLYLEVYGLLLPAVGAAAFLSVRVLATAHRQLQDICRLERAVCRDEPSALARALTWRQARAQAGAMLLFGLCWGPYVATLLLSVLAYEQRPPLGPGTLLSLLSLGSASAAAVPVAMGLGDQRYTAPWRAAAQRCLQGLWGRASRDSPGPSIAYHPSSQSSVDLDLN
Test: functional cAMP assay in CHO-dhfr(minus) cells expressing human GPBAR1 receptors
Assay type: cell-based
Details: 30 min at 30° C.
Outline: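 Agonist cAMP read-out: stable GPBAR1 CHO-dhfr− clone, 30 min compound exposure at 30° C following 30 min IBMX (1 mM) preincubation in Krebs Ringer bicarbonate. Time-resolved energy-transfer detection gives EC50; parental CHO cells serve as counter-screen.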

[1] = human EC50, functional cAMP assay
[2] = functional cAMP assay, read-out: human EC50

| SMILES | EC50 [1] [µM] | EC50 [2] [µM] |
| --- | --- | --- |
| Cc1ccccc1C(CC(=NO)c1ccncc1)c1ccc(C(=O)O)cc1 (racemic) [Example 70, 4-{3-[Hydroxyimino]-3-pyridin-4-yl-1-o-tolyl-propyl}-benzoic acid] | 2.73 | – |
| Cc1ccccc1C(C/C(=N\O)c1cc(F)cc(F)c1)c1ccc(-c2cncnc2)cc1 (stereo not drawn) [Example 54, (E)-1-(3,5-Difluoro-phenyl)-3-(4-pyrimidin-5-yl-phenyl)-3-o-tolyl-propan-1-one oxime] | 2.58 | – |
| Cc1ccccc1C(C/C(=N\O)c1ccnc2cc(Cl)ccc12)c1ccc(Br)cc1 (stereo not drawn) [Example 157, (E)-3-(4-Bromo-phenyl)-1-(7-chloro-quinolin-4-yl)-3-o-tolyl-propan-1-one oxime] | 3.64 | – |
| O/N=C(\CC(O)(c1ccccc1)c1ccccc1)c1ccncc1 [Example 154, (E)-3-Hydroxy-3,3-diphenyl-1-pyridin-4-yl-propan-1-one oxime] | – | 0.549 |
| Cn1cc(/C(CC(c2cccc(C(=O)NCCO)c2)c2ccc(Cl)cc2F)=N/O)ccc1=O (stereo not drawn) [Example 320, (E)-3-(1-(4-Chloro-2-fluorophenyl)-3-(hydroxyimino)-3-(1-methyl-6-oxo-1,6-dihydro-pyridin-3-yl)propyl)-N-(2-hydroxyethyl)benzamide] | 3.37 | – |
| Cc1cc(Cl)ccc1C(C/C(=N\O)c1ccc(=O)n(CCO)c1)c1ccc(S(C)(=O)=O)cc1 (stereo not drawn) [Example 342, (E)-5-(3-(4-Chloro-2-methylphenyl)-1-(hydroxyimino)-3-(4-(methylsulfonyl)phenyl)-propyl)-1-(2-hydroxyethyl)pyridin-2(1H)-one] | 0.993 | – |
| Cn1cc(/C(CC(Cc2ccc(OC(F)(F)F)cc2)c2ccc(Br)cc2)=N/O)ccc1=O (stereo not drawn) [Example 180, 5-[3-(4-Bromo-phenyl)-1-[(E)-hydroxyimino]-4-(4-trifluoromethoxy-phenyl)-butyl]-1-methyl-1H-pyridin-2-one] | 3.45 | – |
| Cc1ccccc1C(C/C(=N/O)c1ccncc1)c1ccc(-c2cncnc2)cc1 (single isomer, unassigned; (+)) [Example 38, (+)-(Z)-1-pyridin-4-yl-3-(4-pyrimidin-5-yl-phenyl)-3-o-tolyl-propan-1-one oxime] | 7.65 | – |
| COC(CCl)CNc1ccc([C@@H](C/C(=N\O)c2ccnc(C)c2)c2ccccc2C)cc1 (stereo partly drawn) [Example 357, (R)-3-[4-(3-Chloro-2-methoxy-propylamino)-phenyl]-1-(2-methyl-pyridin-4-yl)-3-o-tolyl-propan-1-one oxime] | – | 0.091 |
| Cn1cc(/C(CC(c2ccc(C(=O)NC[C@@H](O)CO)cc2)c2ccc(Cl)cc2F)=N/O)ccc1=O (stereo partly drawn) [Example 312, 4-((E)-1-(4-Chloro-2-fluorophenyl)-3-(hydroxyimino)-3-(1-methyl-6-oxo-1,6-dihydropyridin-3-yl)propyl)-N—((R)-2,3-dihydroxypropyl)benzamide] | 0.326 | – |
| O/N=C(/CC(c1ccccc1)c1ccccc1)c1cc(Cl)nc(Cl)c1 [Example 73, (Z)-1-(2,6-dichloro-pyridin-4-yl)-3,3-diphenyl-propan-1-one oxime] | 4.43 | – |
| Cc1ccccc1C(C/C(=N\O)c1ccc(=O)n(C)c1)c1ccc(-c2ccccc2C(=O)O)cc1F (stereo not drawn) [Example 236, 3′-Fluoro-4′-[3-[(E)-hydroxyimino]-3-(1-methyl-6-oxo-1,6-dihydro-pyridin-3-yl)-1-o-tolyl-propyl]-biphenyl-2-carboxylic acid] | 1.2 | – |

The remaining lines, values ahead:

| EC50 [1] [µM] | EC50 [2] [µM] | SMILES |
| --- | --- | --- |
| 0.012 | – | Cc1cc(F)ccc1[C@@H](C/C(=N\O)c1ccc(=O)n(C)c1)c1ccc(-c2ccc(S(N)(=O)=O)cc2)cc1 (single isomer, unassigned) [Example 407, (+)-4′-[1-(4-Fluoro-2-methyl-phenyl)-3-[(E)-hydroxyimino]-3-(1-methyl-6-oxo-1,6-dihydro-pyridin-3-yl)-propyl]-biphenyl-4-sulfonic acid amide] |
| 0.038 | – | Cc1cc(Cl)ccc1C(C/C(=N\O)c1ccc(=O)n(C)c1)c1ccc(S(C)(=O)=O)cc1 (stereo not drawn) [Example 331, (E)-5-(3-(4-chloro-2-methylphenyl)-1-(hydroxyimino)-3-(4-(methylsulfonyl)phenyl)propyl)-1-methylpyridin-2(1H)-one] |
| 0.017 | – | Cc1cnc(F)cc1C(CC(c1ccc(Br)cc1)c1ccccc1C)=NO (racemic) [Example 124, 3-(4-Bromo-phenyl)-1-(2-fluoro-5-methyl-pyridin-4-yl)-3-o-tolyl-propan-1-one oxime] |
| 0.104 | – | Cc1cc(Cl)ccc1C(C/C(=N\O)c1ccc(=O)n(C)c1)c1ccc(Oc2cccc(C(=O)O)c2)c(F)c1 (stereo not drawn) [Example 325, 3-{4-[1-(4-Chloro-2-methyl-phenyl)-3-[(E)-hydroxyimino]-3-(1-methyl-6-oxo-1,6-dihydro-pyridin-3-yl)-propyl]-2-fluoro-phenoxy}-benzoic acid] |
| 0.268 | – | Cc1ccccc1[C@H](C/C(=N\O)c1ccc(=O)n(C)c1)c1ccc(-c2nnn[nH]2)cc1 [Example 500, (R,E)-5-(3-(4-(1H-Tetrazol-5-yl)phenyl)-1-(hydroxyimino)-3-o-tolylpropyl)-1-methyl-pyridin-2(1H)-one, sodium salt] |
| 0.134 | – | Cc1cc(/C(C[C@H](c2ccc(C3=CCN(C(=O)OC(C)(C)C)CC3)cc2)c2ccccc2C)=N/O)ccn1 [Example 372, (R)-tert-Butyl 4-(4-(3-(hydroxyimino)-3-(2-methylpyridin-4-yl)-1-o-tolylpropyl)phenyl)-5,6-dihydropyridine-1(2H)-carboxylate] |
| 0.004 | – | Cc1cc(/C(C[C@H](c2ccc(N3CCC(C(=O)O)CC3)cc2)c2ccc(F)cc2F)=N/O)ccn1 (single isomer, unassigned) [Example 427, 1-{4-[(−)-1-(2,4-Difluoro-phenyl)-3-[(E)-hydroxyimino]-3-(2-methyl-pyridin-4-yl)-propyl]-phenyl}-piperidine-4-carboxylic acid] |
| 0.031 | – | Cn1cc(/C(CC(c2ccc(Br)cc2)c2ccc(Cl)cc2F)=N/O)ccc1=O (single isomer, unassigned; (-)) [Example 240, (−)-5-{3-(4-Bromo-phenyl)-3-(4-chloro-2-fluoro-phenyl)-1-[(E)-hydroxyimino]-propyl}-1-methyl-1H-pyridin-2-one] |
| 0.023 | – | Cc1cc(=O)n(C)cc1/C(CC(c1ccc(Br)cc1)c1ccccc1C)=N/O (stereo not drawn) [Example 199, 5-{3-(4-Bromo-phenyl)-1-[(E)-hydroxyimino]-3-o-tolyl-propyl}-1,4-dimethyl-1H-pyridin-2-one] |
| 0.098 | – | Cc1cc(/C(CC(c2ccc(N3CCOCC3)nc2)c2ccc(F)cc2F)=N/O)ccn1 (stereo not drawn) [Example 443, 3-(2,4-Difluoro-phenyl)-1-(2-methyl-pyridin-4-yl)-3-(6-morpholin-4-yl-pyridin-3-yl)-propan-1-one oxime] |
| 0.013 | – | Cc1cc(/C(C[C@H](c2ccc([C@H]3CC[C@@H](C(=O)O)CC3)cc2)c2ccc(Cl)cc2C)=N/O)ccn1 [Example 505, cis-4-(4-((R,E)-1-(4-chloro-2-methylphenyl)-3-(hydroxyimino)-3-(2-methylpyridin-4-yl)propyl)phenyl)cyclohexanecarboxylic acid] |
| 0.012 | – | Cc1ccccc1[C@H](C/C(=N\O)c1cc(F)ncc1Cl)c1ccc(-c2ccc(C(=O)O)cc2)cc1 [Example 293, 4′-{(R)-3-(5-Chloro-2-fluoro-pyridin-4-yl)-3-[(E)-hydroxyimino]-1-o-tolyl-propyl}-biphenyl-4-carboxylic acid] |
